≈ marks a conversion by molar mass, not a printed value. Where two headings read alike, the source gives them in different places.
Key:
red corpuscles [1] = test: Toxicity on red corpuscles (lysis), mice; type: cell-based; details: 37° C., 1 hour 30, 90 min, 90 min, read-out: LD 50 (dose which leads to lysis in 50% of the erythrocytes)
Protocol: (§1) B.1: Study of the toxicity on red corpuscles
(§2) All the solutions of the AmB derivatives according to the invention were prepared immediately before use by diluting 4 mg of substance in 100 μl of 5% glucose solution, and then, after 15 minutes protected from light, 100 μl of sterile distilled water are added, and the mixture is made up to stock solutions of 4 mg/ml with a 5% glucose solution. For comparative study of the effects of AmB, 4 mg of FUNGIZONE are diluted with 1 ml of 5% glucose.
(§3) The cells are prepared by placing 1 ml of a peripheral blood sample into a tube together with Ficollhypaque to remove the lymphocytes, and then centrifuging the mixture at 2000 rpm for 20 minutes. The remaining red corpuscles are recovered, washed once with 0.9% NaCl and then twice with 150 Mm KCl, 0.5 Mm tris-HCl, pH 7.4.
(§4) A 1.25% suspension is then prepared with 150 mM KCl solution, 0.5 mM tris-HCl, pH 7.4, and 150 μl thereof are distributed in wells along with 50 μl of each of the dilutions of the derivatives, plus a control well (5% glucose solution).
(§5) The cells are then incubated at 37° C. in a steam cabinet for 1 hour 30.
(§6) To evaluate the cell lysis, haemoglobin is essayed by removing 100 μl of the supernatant in each well and diluting the sample with 1 ml of distilled water.
(§7) The haemoglobin concentration is calculated by measuring the optical density at 540 nm and taking into account the absorption of the derivatives of amphotericine B.
(§8) LD 50 is the dose which leads to lysis in 50% of the erythrocytes (a control of 100% lysis is obtained with distilled water, and reference lysis of 0% is obtained with the 5% glucose solution).

[2] = Toxicity on nucleated cells, DAUDI human lymphoma B; type: cell-based; details: human, daudi lymphoma b cells, 1 hour 30, trypan blue, read-out: LD 50 (concentration leading to a mortality of 50%)
red corpuscles [3] = test: Toxicity on red corpuscles (lysis), human; type: cell-based; details: 37° C., 1 hour 30, 90 min, 90 min, read-out: LD 50 (dose which leads to lysis in 50% of the erythrocytes)
Protocol: as §1, §2, §3, §4, §5, §6, §7, §8

Aspergillus fumigatus = test: Diffusion method in agar-agar medium (Sabouraud agar-agar); type: cell-based; details: Sabouraud agar-agar, disc diameter 1 cm, 0.1 ml
Protocol: (§9) A.2 : Study of the antibiotic efficiency of amphotericine B derivatives in agar-agar medium against Aspergillus
(§10) The antibiotic activity was tested by the diffusion method in agar-agar medium (Sabouraud agar-agar).
(§11) The efficiency of each molecule was determined by the size of the growth-inhibiting zone around a WHATMAN 3M paper disc impregnated with the antibiotic substance of a given concentration.
(§12) A suspension of Aspergillus spores in a broth was prepared, 0.2 ml of this suspension was used to inoculate at its surface an agar-agar medium which was solidified in such a manner that a homogeneous growth layer was obtained. After spreading, the WHATMAN 3M paper discs (diameter: 1 cm) were placed on the surface of the agar-agar, and then impregnated with 0.1 ml of the antibiotic substance at different concentrations.

Aspergillus flavus = test: as above; type: cell-based; details: Sabouraud agar-agar, disc diameter 1 cm, 0.1 ml
Protocol: as §9, §10, §11, §12

Pytirosporum orbiculare = test: Growth inhibition in liquid medium (Sabouraud broth); type: cell-based; details: Sabouraud broth, 28° C., 18 hours; read-out: IC 50 (growth-inhibiting concentration of 50%)
Protocol: (§13) A.1 : Study of the antibiotic efficiency of AmB derivatives in liquid medium against different yeasts
(§14) The antibiotic efficiency was tested by the growth inhibition method in liquid medium (Sabouraud broth) in the presence of different concentrations of the derivatives studied.
(§15) A yeast suspension was cultivated in a broth in such a manner that about 1×10^2 cell/ml were obtained.
(§16) The tubes containing the different concentrations of antifungal substance were inoculated with the same amount of yeast cells, and were then incubated at 28° C. for 18 hours with stirring. For each concentration of antifungal substance, two identical tubes were prepared.
(§17) The inhibition of fungal growth corresponding to the different concentrations was evaluated for each molecule by spectrophotometry at 620 nm and expressed in percent with respect to a reference solution without antifungal substance.

Candida albicans = test: as above; type: cell-based; details: Sabouraud broth, 28° C., 18 hours, read-out: IC 50 (growth-inhibiting concentration of 50%)
Protocol: as §13, §14, §15, §16, §17

Saccharomyces cerevisiae = test: as above; type: cell-based; details: Saccharomyces cerevisiae, 18 h, Sabouraud broth, 28° C., 18 hours; read-out: IC 50 (growth-inhibiting concentration of 50%)
Protocol: as §13, §14, §15, §16, §17

Cryptoccocus neoformans = test: as above; type: cell-based; details: 18 h, Sabouraud broth, 28° C., 18 hours; read-out: IC 50 (growth-inhibiting concentration of 50%)
Protocol: as §13, §14, §15, §16, §17

Candida albicans B 2630 = test: as above; type: cell-based; details: B2630, Sabouraud broth, 28° C., 18 hours, read-out: IC 50 (growth-inhibiting concentration of 50%)
Protocol: as §13, §14, §15, §16, §17

[4] = Toxicity on nucleated cells, mice B lymph gland cells; type: cell-based; details: mouse, 1 hour 30, trypan blue, read-out: LD 50 (concentration leading to a mortality of 50%)
Protocol: (§18) B.2: Study of the toxicity on nucleated cells
(§19) The solutions of the amphotericine B derivatives are prepared similarly to those mentioned in paragraph B.1.
(§20) The cells are prepared by placing 20 ml of blood diluted to 1/2 with 0.9% NaCl into a tube together with 10 ml of Ficoll-hypaque, and the mixture is centrifuged at 2000 rpm for 30 minutes. The cell nuclei are recovered and washed twice with PBS buffer containing 5% of foetal calf serum.
(§21) The cells are prepared by suspending 1.14×10^6 cells/ml in RPMI 1640 containing 2.5% of foetal calf serum and by filling each well with 150 μl. 50 μl of each dilution of the derivatives are added and also one control (5% glucose solution).
(§22) The cells are then incubated in a steam cabinet at a CO2 concentration of 5% for 1 hour 30 at 37° C. or at ambient temperature.
(§23) To evaluate the toxicity of the derivatives, a cell count in the presence of trypan blue is made, and the LD 50 (concentration of the derivative leading to a mortality of 50%) is calculated with respect to the control (5% glucose solution) for each concentration of each derivative.

PBL = test: Toxicity on nucleated cells, human PBL; type: cell-based; details: human PBL, 1 hour 30, trypan blue; 90 min; read-out: LD 50 (concentration leading to a mortality of 50%)
Protocol: as §18, §19, §20, §21, §22, §23

[5] = Toxicity on nucleated cells, mice T lymph gland cells; type: cell-based; details: mouse, 1 hour 30, trypan blue, read-out: LD 50 (concentration leading to a mortality of 50%)
Protocol: as §18, §19, §20, §21, §22, §23

X 63 (mice lymphoma B) = test: Toxicity on nucleated cells, X 63 mice lymphoma B; type: cell-based; details: 1 hour 30, trypan blue, 90 min, read-out: LD 50 (concentration leading to a mortality of 50%)
[6] = Toxicity on nucleated cells, human bone marrow; type: cell-based; details: 1 hour 30, trypan blue, read-out: LD 50 (concentration leading to a mortality of 50%)
Protocol: as §18, §19, §20, §21, §22, §23

[7] = Toxicity on nucleated cells, mice thymocytes; type: cell-based; details: mouse, thymocytes, 1 hour 30, trypan blue, read-out: LD 50 (concentration leading to a mortality of 50%)
[8] = Toxicity on nucleated cells, human thymocytes; type: cell-based; details: 1 hour 30, trypan blue, read-out: LD 50 (concentration leading to a mortality of 50%)
Protocol: as §18, §19, §20, §21, §22, §23

DAUDI (human lymphoma B) = test: Toxicity on nucleated cells, DAUDI human lymphoma B; type: cell-based; details: 1 hour 30, trypan blue, 90 min, read-out: LD 50 (concentration leading to a mortality of 50%)
[9] = Toxicity on nucleated cells, X 63 mice lymphoma B; type: cell-based; details: mouse, x 63 lymphoma cells, 1 hour 30, trypan blue, read-out: LD 50 (concentration leading to a mortality of 50%)
[10] = Solubility of the AmB derivatives; type: physicochemical; details: 5% glucose solution, ambient temperature, up to saturation; read-out: solubility (soluble up to a concentration of)
Protocol: C.2. Solubility of the AmB derivatives according to the present invention
AmB or the derivatives obtained are dissolved at ambient temperature in a 5% glucose solution up to saturation.

C[C@@H]1[C@H](O)[C@@H](C)/C=C/C=C/C=C/C=C/C=C/C=C/C=C/[C@H](O[C@@H]2O[C@H](C)[C@@H](O)[C@H](NCC(=O)[C@@H](O)[C@@H]3OC(c4ccccc4)OC[C@H]3O)[C@@H]2O)C[C@@H]2O[C@](O)(C[C@@H](O)C[C@@H](O)[C@H](O)CC[C@@H](O)C[C@@H](O)CC(=O)O[C@H]1C)C[C@H](O)[C@H]2C(=O)O (stereo partly drawn) [AmB 20 F, 1-deoxy-1-amino-4,6-O-benzylidene-D-fructosyl-AmB]
HC50 (red corpuscles [1]): 120 µM
CC50 at 1.5 h [2]: > 1000 µM
HC50 (red corpuscles [3]): 200 µM
IC (1 cm inhibition zone) (Aspergillus fumigatus; Aspergillus fumigatus, read-out: concentration giving a growth inhibition of 1 cm around a disc in solid medium): 200 µM
concentration giving a growth inhibition of 1 cm around a disc in solid medium (Aspergillus flavus): 1.5 × 10^-4 molarity
IC50 (Pytirosporum orbiculare): 0.1 µM
IC50 (Candida albicans; Candida albicans, 18 h): 0.085 µM
IC50 (Saccharomyces cerevisiae): 1.1 µM
IC50 (Cryptoccocus neoformans): 0.045 µM
IC50 (Candida albicans B 2630): 0.15 µM
CC50 at 1.5 h [4]: 100 µM
CC50 (PBL): > 1000 µM
CC50 at 1.5 h [5]: 100 µM
CC50 (X 63 (mice lymphoma B)): > 1000 µM
CC50 at 1.5 h [6]: 1000 µM
CC50 at 1.5 h [7]: 8 µM
CC50 at 1.5 h [8]: > 300 µM

CC(=O)NC[C@H]1OC(O)(CN[C@@H]2[C@H](O)[C@H](O[C@H]3/C=C/C=C/C=C/C=C/C=C/C=C/C=C/[C@H](C)[C@@H](O)[C@@H](C)[C@H](C)OC(=O)C[C@H](O)C[C@H](O)CC[C@@H](O)[C@H](O)C[C@H](O)C[C@]4(O)C[C@H](O)[C@@H](C(=O)O)[C@H](C3)O4)O[C@H](C)[C@H]2O)[C@@H](O)[C@@H]1O (stereo partly drawn) [AmB 23 F, 6-deoxy-6-N-acetyl-1-deoxy-1-aminofructosyl-AmB]
HC50 (red corpuscles [1]): 12 µM
CC50 (DAUDI (human lymphoma B)): > 1000 µM
HC50 (red corpuscles [3]): 50 µM
concentration giving a growth inhibition of 1 cm around a disc in solid medium (Aspergillus fumigatus): 2 × 10^-4 molarity
IC (1 cm inhibition zone) (Aspergillus flavus; Aspergillus flavus, read-out: concentration giving a growth inhibition of 1 cm around a disc in solid medium): 600 µM
IC50 (Pytirosporum orbiculare): 0.076 µM
IC50 (Candida albicans): 0.4 µM
IC50 (Saccharomyces cerevisiae): 1.6 µM
IC50 (Cryptoccocus neoformans): 0.15 µM
CC50 (PBL): 80 µM
CC50 at 1.5 h [9]: > 1000 µM
CC50 at 1.5 h [7]: 3 µM

C[C@@H]1[C@H](O)[C@@H](C)/C=C/C=C/C=C/C=C/C=C/C=C/C=C/[C@H](O[C@@H]2O[C@H](C)[C@@H](O)[C@H](NCC3(O)O[C@H](C(N)=O)[C@@H](O)[C@@H]3O)[C@@H]2O)C[C@@H]2O[C@](O)(C[C@@H](O)C[C@@H](O)[C@H](O)CC[C@@H](O)C[C@@H](O)CC(=O)O[C@H]1C)C[C@H](O)[C@H]2C(=O)O (stereo partly drawn) [AmB 12, 1-amino-1-deoxy-D-arabinoglucuronamidyl-AmB]
solubility [10]: 150 mg/mL (≈ 136 mM)

From patent US5314999A, “Derivatives of basic polyene macrolides and their preparation” (Laboratoires Mayoly-Spindler, priority 1989, dated 1994)
